# Measured values: article PMC7703437, “In Vitro Hepatic Metabolism of Curcumin Diethyl Disuccinate by Liver S9 from Different Animal Species” (Frontiers in Pharmacology, 2020)
# Read-outs that look alike come from different tables or passages of the source.
# Legend:
# [1] = tested on: hepatic esterases of HLS9; experiment: Identification of hepatic esterases by chemical inhibition, curcumin formation rate, HLS9; details: inhibitor 100 μM (EDTA 1 mM), preincubated 30 min at 37°C, HLS9 0.02 mg/ml, CDD 3 µM, 1 min
# [2] = tested on: hepatic esterases of MLS9; experiment: Identification of hepatic esterases by chemical inhibition, curcumin formation rate, MLS9; details: inhibitor 100 μM (EDTA 1 mM), preincubated 30 min at 37°C, MLS9 0.02 mg/ml, CDD 3 µM, 0.5 min
# [3] = tested on: LS9 from all tested species (HLS9, MLS9, DLS9, RLS9); experiment: In vitro metabolism profiling of CDD, statements for LS9 from all tested species; assay type: in vitro ADME, human, monkey, dog, rat
# Method: (§1) The metabolism profiles of CDD were investigated against HLS9, MLS9, DLS9, and RLS9. A stock solution of CDD was prepared at 150 µM in 50% acetonitrile in water before use. The metabolism study was initiated by spiking 735 µl of preincubated LS9 with 15 µl of CDD stock solution, and the mixture was subsequently incubated at 37°C. The final concentrations of CDD and LS9 were 3 μM and 1 mg/ml, respectively. A 50-µl aliquot from the mixture was collected at 0.5, 1, 2, 3, 4, 5, 10, 15, 30, 45, 60, 90, and 120 min and immediately mixed with 100 µl of ice-cold acetonitrile containing 0.45 µM of internal standard DMC to terminate the metabolic reaction. […] The sample at the initial time point (0 min) was prepared as the other samples, except that heat-inactivated HLS9, MLS9, DLS9, and RLS9 (80°C for 20 min; 1 mg/ml protein) were used.
# (§2) The UHPLC system consisted of an Agilent series 1290 quaternary pump with an online degasser, autosampler, column oven, and diode array detector. The mobile phase was composed of (A) 0.1% (v/v) formic acid in acetonitrile and (B) 0.1% (v/v) formic acid in water. Each solution was filtered through a nylon filter (pore size, 0.22 µm; MS® Membrane Filters; Membrane Solutions, United States) before use. The mobile phase flow rate was kept at 1.2 ml/min in a gradient mode using the following elution program: 0–3.0 min, initial A-B (40:60, v/v); 4.5–7.0 min, isocratic elution A-B [50:50, (v/v); 8.5–11.0 min, isocratic elution A-B (60:40, v/v); and 12.0–17.0 min, isocratic elution A-B (40:60, v/v)]. CDD, curcumin, and MSCUR in the supernatant were partitioned using a C8 column (4.6 mm × 50 mm, 2.7 µm; HALO, Advanced Materials Technology, United States) with reference to DMC. The detection wavelength was set at 400 nm (λ max(CDD) = 400 nm, λ max(curcumin) = 427 nm, λ max(MSCUR) = 418 nm, and λ max(DMC) = 421 nm). The column was maintained at 35°C throughout the run, and the supernatant injection volume was set at 20 µl.
# The concentrations of CDD, curcumin, and MSCUR in the supernatant were determined from the standard plots, which were prepared by spiking individual working solutions of the compounds to heat-inactivated HLS9, MLS9, DLS9, and RLS9 ([Alcorn et al., 2007]; [Montoro-Garcia et al., 2009]; [Singh et al., 2010]). […]
# The following equations were adopted to describe the changes in CDD and MSCUR content over time (t): A = A0e^−k1t (2) B= k1A0/k2−k1(e^−k1t−e^−k2t), (3) where A0 is the CDD concentration at time 0, k 1 is the degradation rate constant of CDD, and k 2 is the degradation rate constant of MSCUR. k 1 and k 2 were determined by using Eqs. […] The half-life (t 1/2) was calculated using Eq. 4: t1/2=0.693/k (4)
# [4] = In vitro metabolism profiling of CDD in human liver S9 (1 mg/ml); assay type: in vitro ADME; details: pooled liver S9; human LS9 1 mg/ml; read-out: t 1/2 (MSCUR)
# Method: as §1, §2
# (§3) The concentrations of CDD, curcumin, and MSCUR in the supernatant were determined from the standard plots, which were prepared by spiking individual working solutions of the compounds to heat-inactivated HLS9, MLS9, DLS9, and RLS9 ([Alcorn et al., 2007]; [Montoro-Garcia et al., 2009]; [Singh et al., 2010]). These working standards were extracted with 100 µl of ice-cold acetonitrile containing 0.45 µM of DMC and then 120 μl of the supernatant was diluted with 40 μl of water prior to the UHPLC analysis. The peak area ratios of CDD, curcumin, and MSCUR to the internal standard were computed against linear concentration ranges of 0.025–4.5 µM CDD, 0.025–4.5 µM curcumin, and 0.0125–0.75 µM MSCUR, respectively, with the coefficient of determination (r^2) values greater than 0.99.
# (§4) The percent content of CDD and the metabolites formed upon its incubation with LS9, namely, curcumin and MSCUR, was plotted against incubation time.
# (§5) The following equations were adopted to describe the changes in CDD and MSCUR content over time (t): A = A0e^−k1t (2) B= k1A0/k2−k1(e^−k1t−e^−k2t), (3) where A0 is the CDD concentration at time 0, k 1 is the degradation rate constant of CDD, and k 2 is the degradation rate constant of MSCUR. k 1 and k 2 were determined by using Eqs. 2 and 3, respectively, with nonlinear regression analysis using the SOLVER function of Microsoft Excel for Office 365 MSO (16.0.12527.20986) ([Brown, 2001]). The half-life (t 1/2) was calculated using Eq. 4: t1/2=0.693/k (4)
# (§6) The in vitro intrinsic clearance (CLint,in vitro) of CDD and MSCUR in LS9 was calculated using Eq. 5: CLint, in vitro= k × [V]incubation(ml)/[P]incubation(mg protein), (5) where [V]incubation is the incubation volume in ml, and [P]incubation is the amount of LS9. […]
# human LS9 (HLS9; pooled) = experiment: as above; assay type: in vitro ADME
# Method: as §1, §2, §3, §4, §5, §6
# [5] = In vitro metabolism profiling of CDD in monkey liver S9 (1 mg/ml); assay type: in vitro ADME, monkey (cynomolgus); details: liver S9; monkey LS9 1 mg/ml; read-out: t 1/2 (MSCUR)
# Method: as §1, §2, §3, §4, §5, §6
# [6] = tested on: monkey LS9 (MLS9; cynomolgus); experiment: as above; assay type: in vitro ADME
# Method: as §1, §2, §3, §4, §5, §6
# [7] = In vitro metabolism profiling of CDD in dog liver S9 (1 mg/ml); assay type: in vitro ADME, dog (beagle); details: beagle, liver S9; dog LS9 1 mg/ml; read-out: t 1/2 (MSCUR)
# Method: as §1, §2, §3, §4, §5, §6
# dog LS9 (DLS9; beagle) = experiment: as above; assay type: in vitro ADME
# Method: as §1, §2, §3, §4, §5, §6
# [8] = In vitro metabolism profiling of CDD in rat liver S9 (1 mg/ml); assay type: in vitro ADME, rat (Sprague–Dawley); details: Sprague-Dawley, liver S9; rat LS9 1 mg/ml; read-out: t 1/2 (MSCUR)
# Method: as §1, §2, §3, §4, §5, §6
# [9] = tested on: rat LS9 (RLS9; Sprague–Dawley); experiment: as above; assay type: in vitro ADME
# Method: as §1, §2, §3, §4, §5, §6
# [10] = enzymatic hydrolysis, cited from earlier work
compound,measurement,setting,value
CN(C)C(=O)C(CCN1CCC(O)(c2ccc(Cl)cc2)CC1)(c1ccccc1)c1ccccc1 [loperamide],inhibition of CDD hydrolysis in HLS9 (relative curcumin formation rate),[1],inhibited
"O=C(O)c1cc(SSc2ccc([N+](=O)[O-])c(C(=O)O)c2)ccc1[N+](=O)[O-] [DTNB, 5,5′-dithiobis (2-nitrobenzoic acid)]",inhibition of CDD hydrolysis in HLS9 (relative curcumin formation rate),[1],to a lesser extent
same,inhibition of CDD hydrolysis in MLS9 (relative curcumin formation rate),[2],no enzyme inhibitory effects
"CC(C)NP(=O)(NC(C)C)OP(=O)(NC(C)C)NC(C)C [iso-OMPA, tetra(monoisopropyl) pyrophosphortetramide]",inhibition of CDD hydrolysis in HLS9 (relative curcumin formation rate),[1],to a lesser extent
C[C@@H]1CC[C@@]2(OC1)O[C@H]1[C@@H](O)[C@H]3[C@@H]4CC[C@H]5C[C@@H](O[C@@H]6O[C@H](CO)[C@H](O[C@@H]7O[C@H](CO)[C@@H](O)[C@H](O[C@@H]8OC[C@@H](O)[C@H](O)[C@H]8O)[C@H]7O[C@@H]7O[C@H](CO)[C@H](O)[C@H](O[C@@H]8O[C@H](CO)[C@@H](O)[C@H](O)[C@H]8O)[C@H]7O)[C@H](O)[C@H]6O)[C@H](O)C[C@]5(C)[C@H]4CC[C@]3(C)[C@H]1[C@@H]2C [digitonin],inhibition of CDD hydrolysis in HLS9 (relative curcumin formation rate),[1],inhibited
"O=C(O)CN(CCN(CC(=O)O)CC(=O)O)CC(=O)O [EDTA, ethylenediaminetetraacetic acid]",inhibition of CDD hydrolysis in MLS9 (relative curcumin formation rate),[2],no enzyme inhibitory effects
"C=CC[N+](C)(C)c1ccc(CCC(=O)CCc2ccc([N+](C)(C)CC=C)cc2)cc1.[Br-].[Br-] [1,5-bis(4-allyldimethylammoniumphenyl) pentan-3-one dibromide]",inhibition of CDD hydrolysis in MLS9 (relative curcumin formation rate),[2],no enzyme inhibitory effects
curcumin,curcumin (M1) produced,[3]; following 15 min of incubation of CDD 3 µM in each LS9,~70%
"CCOC(=O)CCC(=O)Oc1ccc(/C=C/C(=O)/C=C(O)/C=C/c2ccc(O)c(OC)c2)cc1OC [MSCUR, monoethylsuccinyl curcumin]",half-life,[4],3.456 ± 0.00252 s
same,"CLint, in vitro(MSCUR)",human LS9 (HLS9; pooled); human LS9,12.07 ± 0.86 ml min^−1 mg protein^−1
same,k 2 (MSCUR),"human LS9 (HLS9; pooled); human LS9 1 mg/ml, CDD 3 µM, 37°C",12.07 ± 0.86 min⁻¹
same,"CLint, in vivo(MSCUR)","human LS9 (HLS9; pooled); human, scaled from CLint,in vitro","2,251.20 ± 161.06 L h^−1 kg^−1"
same,half-life at 3 µM,[5],2.034 ± 0.00324 s
same,"CLint, in vitro(MSCUR) of MLS9 higher than that of HLS9",[6]; MLS9 vs HLS9,~1.7 fold
same,"CLint, in vitro(MSCUR)",[6]; monkey LS9,20.79 ± 3.13 ml min^−1 mg protein^−1
same,k 2 (MSCUR),"[6]; monkey LS9 1 mg/ml, CDD 3 µM, 37°C",20.79 ± 3.13 min⁻¹
same,"CLint, in vivo(MSCUR)","[6]; monkey, scaled from CLint,in vitro","4,527.30 ± 682.15 L h^−1 kg^−1"
same,half-life at 3 µM,[7],1.704 ± 0.0018 s
same,"CLint, in vitro(MSCUR) of DLS9 higher than that of HLS9",dog LS9 (DLS9; beagle); DLS9 vs HLS9,approximately two
same,"CLint, in vitro(MSCUR)",dog LS9 (DLS9; beagle); dog LS9,24.61 ± 2.55 ml min^−1 mg protein^−1
same,k 2 (MSCUR),"dog LS9 (DLS9; beagle); dog LS9 1 mg/ml, CDD 3 µM, 37°C",24.61 ± 2.55 min⁻¹
same,"CLint, in vivo(MSCUR)","dog LS9 (DLS9; beagle); dog, scaled from CLint,in vitro","5,716.98 ± 592.58 L h^−1 kg^−1"
same,half-life at 3 µM,[8],4.314 ± 0.00264 s
same,"CLint, in vitro(MSCUR) of RLS9 lower than that of HLS9",[9]; RLS9 vs HLS9,0.8 fold
same,"CLint, in vitro(MSCUR)",[9]; rat LS9,9.66 ± 0.60 ml min^−1 mg protein^−1
same,k 2 (MSCUR),"[9]; rat LS9 1 mg/ml, CDD 3 µM, 37°C",9.66 ± 0.60 min⁻¹
same,"CLint, in vivo(MSCUR)","[9]; rat, scaled from CLint,in vitro","2,805.37 ± 174.76 L h^−1 kg^−1"
same,maximum amount of M2 or MSCUR,[3]; at 0.5 min of incubation of CDD 3 µM in LS9,approximately 10%
COC(=O)[C@H](c1ccccc1Cl)N1CCc2sc(OC(C)=O)cc2C1 [vicagrel],t 1/2,"[10]; ref Qiu et al., 2016",approximately 1.6 min
"O=S(=O)(F)Cc1ccccc1 [PMSF, phenylmethylsulfonyl fluoride]",inhibition of CDD hydrolysis in HLS9 (relative curcumin formation rate),[1],to a lesser extent
"O=[N+]([O-])c1ccc(OP(=O)(O)Oc2ccc([N+](=O)[O-])cc2)cc1 [BNPP, Bis(4-nitrophenyl) phosphate]",inhibition of CDD hydrolysis in HLS9 (relative curcumin formation rate),[1],inhibited
same,inhibition of CDD hydrolysis in MLS9 (relative curcumin formation rate),[2],inhibited
"O=C([O-])c1cc[c]([Hg][OH])cc1.[Na+] [PCMB, 4-(hydroxymercurio) benzoic acid sodium salt]",inhibition of CDD hydrolysis in HLS9 (relative curcumin formation rate),[1],inhibited
same,inhibition of CDD hydrolysis in MLS9 (relative curcumin formation rate),[2],no enzyme inhibitory effects
CC(C)OC(=O)[C@H](C)N[P@](=O)(OC[C@H]1O[C@@](C#N)(c2ccc3c(N)ncnn23)[C@](C)(O)[C@@H]1OC(=O)C(C)C)Oc1ccccc1 [GS-6620],t 1/2,"[10]; ref Murakami et al., 2014",approximately 4.0 min
